Data reported in patent publication US6858434B1, “Method for synthesis, separation and screening of a plurality of compounds in the same bulk of a stationary phase” (Sinvent AS, priority 1999, dated 2005).

Test system: Serracia marcescens
Assay: agar overlay screening for antimicrobial activity on the TLC plate
Type: cell-based
Conditions: agar gel containing Serracia marcescens poured over the TLC plate, left overnight at room temperature

## c1ccc(CN2CCCC2)cc1 [product]
  antibacterial activity (white inhibition zones around the spot): antibacterial activity
